Reference: the NIST ThermoML archive (doi:10.1021/je800527p)

Assay: mn = molality of the nth substance listed, in mol/kg
Settings: 101 kPa, Liquid

N[C@@H](CC(=O)NCC(=O)O)C(=O)NCC(=O)O [L-aspartoylbisglycine] + O
Settings | mass density [kg/m3]
288.15 K, m1 = 0.02634 | 1001.74
288.15 K, m1 = 0.03248 | 1002.34
288.15 K, m1 = 0.03979 | 1003.07
288.15 K, m1 = 0.04516 | 1003.6
288.15 K, m1 = 0.05155 | 1004.23
288.15 K, m1 = 0.05974 | 1005.03
288.15 K, m1 = 0.06457 | 1005.5
288.15 K, m1 = 0.06951 | 1005.98
298.15 K, m1 = 0.02287 | 999.295
298.15 K, m1 = 0.02484 | 999.489
298.15 K, m1 = 0.02795 | 999.79
298.15 K, m1 = 0.03159 | 1000.15
298.15 K, m1 = 0.0337 | 1000.35
298.15 K, m1 = 0.03757 | 1000.73
298.15 K, m1 = 0.04282 | 1001.24
298.15 K, m1 = 0.0486 | 1001.8
298.15 K, m1 = 0.05367 | 1002.29
298.15 K, m1 = 0.05892 | 1002.8
303.15 K, m1 = 0.02228 | 997.821
303.15 K, m1 = 0.02508 | 998.095
303.15 K, m1 = 0.02783 | 998.36
303.15 K, m1 = 0.0319 | 998.757
303.15 K, m1 = 0.03772 | 999.316
303.15 K, m1 = 0.0429 | 999.814
303.15 K, m1 = 0.04971 | 1000.47
303.15 K, m1 = 0.0554 | 1001.02
303.15 K, m1 = 0.06187 | 1001.64
313.15 K, m1 = 0.02228 | 994.368
313.15 K, m1 = 0.02508 | 994.635
313.15 K, m1 = 0.02783 | 994.898
313.15 K, m1 = 0.0319 | 995.29
313.15 K, m1 = 0.03772 | 995.842
313.15 K, m1 = 0.0429 | 996.336
313.15 K, m1 = 0.04971 | 996.987
313.15 K, m1 = 0.0554 | 997.526
313.15 K, m1 = 0.06187 | 998.14

NCC(=O)N[C@@H](CS)C(=O)NCC(=O)O [glycyl-L-cysteinylglycine] + O
Settings | mass density [kg/m3]
288.15 K, m1 = 0.01633 | 1000.63
288.15 K, m1 = 0.02087 | 1001.05
288.15 K, m1 = 0.02582 | 1001.51
288.15 K, m1 = 0.02984 | 1001.88
288.15 K, m1 = 0.03474 | 1002.34
288.15 K, m1 = 0.0395 | 1002.78
288.15 K, m1 = 0.04097 | 1002.91
288.15 K, m1 = 0.04442 | 1003.23
288.15 K, m1 = 0.04953 | 1003.71
303.15 K, m1 = 0.02103 | 997.568
303.15 K, m1 = 0.02497 | 997.92
303.15 K, m1 = 0.02788 | 998.184
303.15 K, m1 = 0.03046 | 998.417
303.15 K, m1 = 0.03394 | 998.731
303.15 K, m1 = 0.0374 | 999.043
303.15 K, m1 = 0.04008 | 999.279
303.15 K, m1 = 0.04358 | 999.593
303.15 K, m1 = 0.05003 | 1000.17
303.15 K, m1 = 0.05296 | 1000.43
313.15 K, m1 = 0.02094 | 994.099
313.15 K, m1 = 0.03109 | 995.001
313.15 K, m1 = 0.03597 | 995.437
313.15 K, m1 = 0.03941 | 995.739
313.15 K, m1 = 0.04508 | 996.242
313.15 K, m1 = 0.05002 | 996.672
313.15 K, m1 = 0.05218 | 996.867
313.15 K, m1 = 0.05751 | 997.331

NCC(=O)N[C@@H](Cc1cnc[nH]1)C(=O)NCC(=O)O [glycyl-L-histidylglycine] + O
Settings | mass density [kg/m3]
288.15 K, m1 = 0.004019 | 999.501
288.15 K, m1 = 0.00501 | 999.6
288.15 K, m1 = 0.006072 | 999.708
288.15 K, m1 = 0.007051 | 999.802
288.15 K, m1 = 0.008127 | 999.911
288.15 K, m1 = 0.00901 | 1000
288.15 K, m1 = 0.01012 | 1000.11
288.15 K, m1 = 0.01088 | 1000.19
288.15 K, m1 = 0.01205 | 1000.31
298.15 K, m1 = 0.004009 | 997.442
298.15 K, m1 = 0.007226 | 997.762
298.15 K, m1 = 0.008041 | 997.838
298.15 K, m1 = 0.00901 | 997.939
298.15 K, m1 = 0.01009 | 998.038
298.15 K, m1 = 0.01109 | 998.142
298.15 K, m1 = 0.01227 | 998.254
303.15 K, m1 = 0.00404 | 996.046
303.15 K, m1 = 0.00498 | 996.138
303.15 K, m1 = 0.006103 | 996.247
303.15 K, m1 = 0.00711 | 996.346
303.15 K, m1 = 0.007975 | 996.427
303.15 K, m1 = 0.01106 | 996.73
303.15 K, m1 = 0.01225 | 996.842
313.15 K, m1 = 0.005108 | 992.711
313.15 K, m1 = 0.006051 | 992.804
313.15 K, m1 = 0.006936 | 992.89
313.15 K, m1 = 0.0082 | 993.012
313.15 K, m1 = 0.01022 | 993.207
313.15 K, m1 = 0.01138 | 993.309
313.15 K, m1 = 0.01232 | 993.4

NCC(=O)N[C@@H](CO)C(=O)NCC(=O)O [glycyl-L-serylglycine] + O
Settings | mass density [kg/m3]
288.15 K, m1 = 0.03014 | 1001.82
288.15 K, m1 = 0.03542 | 1002.28
288.15 K, m1 = 0.04107 | 1002.79
288.15 K, m1 = 0.04543 | 1003.18
288.15 K, m1 = 0.05019 | 1003.61
288.15 K, m1 = 0.05524 | 1004.05
288.15 K, m1 = 0.06026 | 1004.51
288.15 K, m1 = 0.06526 | 1004.95
298.15 K, m1 = 0.025 | 999.264
298.15 K, m1 = 0.0306 | 999.768
298.15 K, m1 = 0.03505 | 1000.16
298.15 K, m1 = 0.04024 | 1000.61
298.15 K, m1 = 0.04521 | 1001.05
298.15 K, m1 = 0.05166 | 1001.62
298.15 K, m1 = 0.05493 | 1001.9
298.15 K, m1 = 0.0598 | 1002.34
298.15 K, m1 = 0.06564 | 1002.84
303.15 K, m1 = 0.02533 | 997.881
303.15 K, m1 = 0.02992 | 998.289
303.15 K, m1 = 0.03496 | 998.733
303.15 K, m1 = 0.0453 | 999.64
303.15 K, m1 = 0.05003 | 1000.05
303.15 K, m1 = 0.0555 | 1000.53
303.15 K, m1 = 0.06095 | 1001
303.15 K, m1 = 0.06473 | 1001.34
313.15 K, m1 = 0.02969 | 994.793
313.15 K, m1 = 0.03329 | 995.098
313.15 K, m1 = 0.03976 | 995.655
313.15 K, m1 = 0.04401 | 996.025
313.15 K, m1 = 0.04969 | 996.506
313.15 K, m1 = 0.05419 | 996.891
313.15 K, m1 = 0.05935 | 997.32
313.15 K, m1 = 0.06498 | 997.808

NCC(=O)N[C@@H](Cc1ccc(O)cc1)C(=O)NCC(=O)O [glycyl-L-tyrosylglycine] + O
Settings | mass density [kg/m3]
288.15 K, m1 = 0.01708 | 1000.85
288.15 K, m1 = 0.01938 | 1001.08
288.15 K, m1 = 0.02117 | 1001.26
288.15 K, m1 = 0.023 | 1001.45
288.15 K, m1 = 0.02384 | 1001.53
288.15 K, m1 = 0.02504 | 1001.65
288.15 K, m1 = 0.02575 | 1001.72
288.15 K, m1 = 0.02705 | 1001.85
288.15 K, m1 = 0.0279 | 1001.95
288.15 K, m1 = 0.02909 | 1002.06
303.15 K, m1 = 0.01685 | 997.325
303.15 K, m1 = 0.01781 | 997.42
303.15 K, m1 = 0.019 | 997.535
303.15 K, m1 = 0.02087 | 997.719
303.15 K, m1 = 0.02301 | 997.932
303.15 K, m1 = 0.02396 | 998.023
303.15 K, m1 = 0.02501 | 998.127
303.15 K, m1 = 0.02604 | 998.224
303.15 K, m1 = 0.02701 | 998.323
303.15 K, m1 = 0.02792 | 998.415
303.15 K, m1 = 0.02882 | 998.496
313.15 K, m1 = 0.017 | 993.889
313.15 K, m1 = 0.01785 | 993.972
313.15 K, m1 = 0.01889 | 994.065
313.15 K, m1 = 0.02086 | 994.259
313.15 K, m1 = 0.0216 | 994.332
313.15 K, m1 = 0.02288 | 994.456
313.15 K, m1 = 0.02376 | 994.546
313.15 K, m1 = 0.02492 | 994.655
313.15 K, m1 = 0.02586 | 994.742
313.15 K, m1 = 0.02688 | 994.842
313.15 K, m1 = 0.02763 | 994.913
313.15 K, m1 = 0.02902 | 995.047
